The record followed here is PubChem BioAssay (NCI).

Common to all, as to test: DTP human tumour cell line panel, 48 h
Assay [1] relates to SN12C renal.
Assay [2] deals with K-562 leukemia.
In assay [3] the test system is RPMI-8226 leukemia.
Assay [4] deals with NCI-H522 lung.
The test system of assay [5] is A549 NSCLC.
Assay [6] deals with SW-620 colon.
Assay [7] deals with HT29 colon.
Assay [8] concerns SNB-19 CNS.
For assay [9], the system named is U251 CNS.

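96-well plates; 48 h exposure; 5 concentrations. Endpoints by linear interpolation between flanking doses. Not reached: highest tested concentration assigned. GI50 marks 50% less growth. Definition used: TGI = concentration required for complete inhibition of growth.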 Bounds are passed on as bounds.

Take `[Cl-].[O-]/N=C(\c1ccccc1)c1ccccn1.[O-]/N=C(\c1ccccc1)c1ccccn1.[O-]/N=C(\c1ccccc1)c1ccccn1.[Sm+3]`: the GI50 in assay [1] was 33.1 µM; in [2], 32.6 µM; in assay [3], 47.4 µM; in [4], 24.6 µM; in assay [5], 35.8 µM; in [6] it was 34.5 µM. The GI50 was 44 µM in assay [7], 36 µM in assay [8] and 38 µM in assay [9]. Further, the TGI in assay [1] is more than 100 µM; in assay [2], more than 100 µM; in [3], more than 100 µM; in [4] it was 75.3 µM; in [5] it was more than 100 µM; in [6] it was more than 100 µM. The TGI in assay [7], in assay [8] and in assay [9] was more than 100 µM throughout.

`CCOC(=O)C1N(S(=O)(=O)c2ccc(C)cc2)CCC12c1ccccc1N(C(C)=O)C2c1ccc(OC)c(OC)c1` (stereo not given): the TGI in assay [1], in assay [2], in [3], in [4], in [5] and in [6] was more than 100 µM throughout. The TGI in assay [7], in [8] and in [9] was more than 100 µM in each case.

Take `Cc1ccc(SC(CCC(Sc2ccc(C)cc2)Sc2ccc(C)cc2)Sc2ccc(C)cc2)cc1`: the TGI in [1], in [2], in [3], in assay [4], in assay [5] and in [6] was more than 100 µM in each case. The TGI in assay [8] and in assay [9] was more than 100 µM throughout.

As to `O=C1c2ccccc2C(Br)(Br)c2ccccc21`, the TGI was more than 31.6 µM in assay [1]; more than 31.6 µM in assay [2]; more than 31.6 µM in [4]; more than 31.6 µM in [5]; more than 31.6 µM in assay [6]; more than 100 µM in [7]. The TGI in assay [8] and in [9] was more than 31.6 µM each time.

As to `COC(=O)N(C(=O)OC)C(C(=O)O)C(C)C` (stereo not given), the concentration for total growth inhibition (TGI) in assay [1], in [4], in assay [5], in assay [6], in [7] and in [8] was more than 100 µM throughout. Further, the TGI in assay [9] is more than 100 µM.

Regarding `CC(=O)[CH-]C(C)=O.CC(=O)[CH-]C(C)=O.[CH2-]CCC.[CH2-]CCC.[Sn+4]`, the GI50 in assay [1] is 0.346 µM; in [2], 0.283 µM; in assay [4], 0.0586 µM; in [5], 1.88 µM; in assay [6], 0.148 µM; in [7], 1.28 µM. Moreover, the results for the GI50 in [8] and in assay [9] were 0.663 µM and 0.304 µM, respectively. The total growth inhibition concentration (TGI) in assay [1] was 1.67 µM; in assay [2], more than 100 µM; in [4], 0.122 µM; in [5], 4.15 µM; in [6], 0.375 µM; in assay [7] it was 2.59 µM. Moreover, the TGI was 1.97 µM in assay [8] and 1.06 µM in assay [9].

As for `COc1ccc2c(CN3CCCCC3CO)cc3cc(OC)c(OC)cc3c2c1` (stereo not given), the TGI in assay [1] is 26.2 µM; in [2] it was 10.1 µM; in [3], 33 µM; in assay [4], 7.72 µM; in assay [5], 14.2 µM; in assay [6], 15.7 µM. In addition, the TGI in assay [7] came out at 11.4 µM; in assay [8] it was 16.5 µM; in assay [9], 18.3 µM.

Regarding `CCCCCC[N+](C)(C)Cc1ccc(C[N+](C)(C)CCCCCC)cc1`, the TGI in [1] amounted to 12.7 µM; in assay [2], 5.65 µM; in assay [3] it was 9.96 µM; in assay [5], 12.8 µM; in [6], 26.6 µM; in assay [7], 16 µM. In addition, the TGI in [8] is 67.4 µM; in assay [9], 7.28 µM.

`CN(C)CC(C)(C)/C(=N\Nc1ccccc1)c1ccccc1`: the total growth inhibition concentration (TGI) in assay [1], in assay [2], in [3], in assay [4], in assay [5] and in assay [6] was more than 100 µM throughout. The TGI in [7], in assay [8] and in assay [9] was more than 100 µM each time.

Consider `CCCCCC(=O)C(C)C1=Nc2nnc(CCCCCCCc3nnc4n3C(=O)C(C(C)C(=O)CCCCC)=N4)n2C1=O` (stereo not given), for which the total growth inhibition concentration (TGI) in assay [1], in assay [2], in assay [3], in [4], in assay [5] and in assay [6] was more than 100 µM each time. Further, the TGI in assay [7], in [8] and in [9] was more than 100 µM each time.

As for `O=c1nc(/C=C/c2ccccc2Cl)cc2n1CCN2CCO`, the TGI in assay [1] was more than 100 µM; in [2], more than 100 µM; in assay [3], more than 100 µM; in assay [4] it was 47.4 µM; in assay [6] it was more than 100 µM; in assay [7], more than 100 µM.

With `COc1ccc(S(=O)(=O)Nc2ccccc2C(=O)O)cc1`, the TGI in assay [1], in assay [2], in assay [3], in assay [4], in assay [5] and in [6] was more than 100 µM in each case. Also, the concentration for total growth inhibition (TGI) in assay [7], in assay [8] and in assay [9] was more than 100 µM in each case.

For the molecule `COc1ccc(Nc2nc3ccc(C(F)(F)F)cc3nc2-c2ccccc2)cc1OC`, the concentration for total growth inhibition (TGI) was more than 100 µM in assay [1]; more than 100 µM in [2]; 75.3 µM in assay [4]; more than 100 µM in [5]; more than 100 µM in assay [6]; 22.6 µM in [7]. This molecule also returned a total growth inhibition concentration (TGI) in assay [9] of more than 100 µM.

Turning to `C[N-]c1nnnn1C.[Au+].c1ccc([PH+](c2ccccc2)c2ccccc2)cc1`, the GI50 was 3.46 µM in [1]; 0.518 µM in [2]; 1.29 µM in assay [3]; 14.7 µM in [5]; 2 µM in assay [7]; 2.25 µM in assay [8]. Further, the GI50 in assay [9] is 2.28 µM. The concentration for total growth inhibition (TGI) in assay [1] was 7.92 µM; in [2] it was 2.88 µM; in assay [3] it was 4.54 µM; in assay [5] it was 68.7 µM; in assay [7], 4.53 µM; in [8], 6.18 µM. In assay [9], this molecule came in with a TGI of 5.56 µM.

As for `CCc1cccc(C)c1NC(=O)c1sc2nc3c(cc2c1N)CCCCC3`, the GI50 was 6 µM in [1]; 4.3 µM in assay [3]; 2.78 µM in [4]; 4.14 µM in assay [5]; 3.76 µM in assay [6]; 3.26 µM in assay [7]. Also, the figures for the GI50 in [8] and in assay [9] were 4.07 µM and 3.62 µM, respectively. Moreover, the total growth inhibition concentration (TGI) in assay [1] is more than 100 µM; in assay [3], 25 µM; in assay [4] it was 41.9 µM; in assay [5] it was more than 100 µM; in assay [6] it was more than 100 µM; in assay [7], 24.7 µM. Besides, the figures for the concentration for total growth inhibition (TGI) in [8] and in assay [9] were more than 100 µM and 80.9 µM, respectively.

As for `COCCCNC(=O)C1C(=O)N(CCCOC)C(=O)/C1=N\N` (stereo not given), the TGI in [1], in assay [2], in [3], in assay [4], in assay [5] and in assay [6] was more than 100 µM in each case. In addition, the TGI in assay [7], in assay [8] and in assay [9] was more than 100 µM each time.

On to `C=C(c1ccc2nc(NC(=O)OC)[nH]c2c1)c1cccs1`, for which the total growth inhibition concentration (TGI) in assay [1] is more than 100 µM; in [2], more than 35.5 µM; in assay [3], 3.59 µM; in assay [5], more than 100 µM; in [6], more than 100 µM; in assay [7] it was more than 100 µM. Further, the TGI was more than 100 µM in assay [8] and 7.31 µM in assay [9].

For `COc1ccc(OC)c2c1CC(C(=O)O)(C(=O)O)CC2=O`, the TGI in [1], in assay [2], in [5], in assay [6], in assay [8] and in [9] was more than 100 µM in each case.

As to `Cc1[nH]c2ccccc2c1C(=O)CC1(O)C(=O)Nc2ccccc21` (stereo not given), the TGI in [1], in [2], in assay [3], in [5], in assay [6] and in assay [7] was more than 100 µM each time. Moreover, the TGI in [8] and in assay [9] was more than 100 µM each time.

Take `c1cc(N(CCn2cccn2)CCn2cccn2)cc(N(CCn2cccn2)CCn2cccn2)c1`: the TGI in [1], in assay [2], in assay [3], in assay [4], in assay [5] and in assay [6] was more than 100 µM each time. The TGI in assay [8] and in assay [9] was more than 100 µM throughout.

With `Cc1ccc(NC(=O)C2C(=O)N(c3ccc(C)cc3)C(=O)/C2=N\NC(N)=S)cc1` (stereo not given), the TGI in assay [1], in assay [2], in [3], in assay [4], in [6] and in assay [7] was more than 100 µM in each case. Moreover, the TGI in assay [8] and in assay [9] was more than 100 µM throughout.

The GI50 is the concentration that inhibits growth by half. By TGI is commonly meant the concentration at which net growth stops. A higher TGI goes with less potent growth arrest.
